The target in test [1] is T1, Adrenergic β2 (H292 cells) (Homo sapiens, UniProt P07550).
T1 construct: endogenous in cells; host or cells: H292 cells
As to the kind of experiment: Adrenergic β2 Mediated cAMP Production, single concentration 1 μM. The format is cell-based. The note with it: NCI-H292, 1 μM compound, percentage of the maximum response generated by 1E-07M formoterol, read-out: β2 (% effect at 1 μM). As to the method:
The following experimental procedure was used to measure the beta-2% effect at 1 μM for the compounds of Examples 116-263. Adrenergic β2 Mediated cAMP Production Cell Preparation
H292 cells are grown in 225 cm2 flasks incubator at 37° C., 5% CO2 in RPMI medium containing 10% (v/v) FBS (foetal bovine serum) and 2 mM L-glutamine.
Compounds were prepared by an initial first dilution into DMSO to give 1 mM stock concentration. This was followed by a 1 in 10 dilution of the stock concentration (10 μl stock compound+90 μl DMSO) to give 0.1 mM compound.
A compound addition plate was prepared by making a further 1 in 25 dilution in assay buffer (HBSS solution containing 10 mM HEPES pH7.4 and 5 mM glucose) containing 4% dimethylsulfoxide. The final compound concentration in assay is 1 μM.
Adherent H292 cells are removed from tissue culture flasks by treatment with Accutase™ cell detachment solution for 15 minutes. Flasks are incubated for 15 minutes in a humidified incubator at 37° C., 5% CO2. Detached cells are re-suspended in RPMI media (containing 10% (v/v) FBS and 2 mM L-glutamine) at 0.1×10^6 cells per mL. 10000 cells in 100 μL are added to each well of a tissue-culture-treated 96-well plate and the cells incubated overnight in a humidified incubator at 37° C., 5% CO2. The culture media is removed and cells are washed twice with 100 μL assay buffer and replaced with 50 μL assay buffer (HBSS solution containing 10 mM HEPES pH7.4 and 5 mM glucose). Cells are rested at room temperature for 20 minutes after which time 25 μL of rolipram (1.2 mM made up in assay buffer) is added. Cells are incubated with rolipram for 10 minutes after which time 25 μl test compounds are added and the cells are incubated for 60 minutes at room temperature. The final rolipram concentration in the assay is 300 μM and final vehicle concentration is 1% (v/v) dimethylsulphoxide. The reaction is stopped by removing supernatants, washing once with 100 μL assay buffer and replacing with 50 μL lysis buffer. The cell monolayer is frozen at −80° C. for 30 minutes (or overnight).
AlphaScreen™ cAMP Detection
The concentration of cAMP (cyclic adenosine monophosphate) in the cell lysate is determined using AlphaScreen™ methodology. The frozen cell plate is thawed for 20 minutes on a plate shaker then 10 μL of the cell lysate is transferred to a 96-well white plate. 40 μL of mixed AlphaScreen™ detection beads (containing equal volumes of donor beads (pre-incubated with biotinylated cAMP in the dark for 30 minutes) and acceptor beads is added to each well and the plate incubated at room temperature for 3 hours in the dark. The AlphaScreen™ signal is measured using an EnVision spectrophotometer (Perkin-Elmer Inc.) with the recommended manufacturer's settings. Concentration of cAMP produced per well were calculated with reference to the cAMP standard curve determined in the same experiment and expressed as a percentage of the maximum response generated by 1E-07M formoterol.

Test [2] concerns the target T2, human muscarinic acetylcholine M3 receptor (M3-ACh) (Homo sapiens, UniProt P20309).
T2 construct: expressed in transfected cells; host or cells: CHO-K1 (Chinese Hamster Ovary) cell membranes
As to the kind of experiment: Muscarinic 3 Receptor Binding Assay, % inhibition specific binding at 1 μM. The note with it: 1 μM compound, % inhibition specific [3H]-NMS binding. As to the method: The following experimental procedure was used to determine the M3% inhibition at 1 μM of the compounds of Examples 116-263.
Muscarinic 3 Receptor Binding Assay
The activity (% inhibition specific binding) of compounds -on the M3 receptor is determined by competition binding of [^3H]N-methyl scopolamine (NMS) to CHO-K1 (Chinese Hamster Ovary) cell membranes expressing the human muscarinic acetylcholine M3 receptor (M3-ACh) in a scintillation proximity assay (SPA) format.
SPA beads are precoated with membranes and then incubated at 2 mg of beads per well with 1 μM compound of the invention, [^3H]NMS at 0.1 nM, quarter Kd (experimentally determined dissociation constant) and assay buffer (20 mM HEPES pH 7.4 containing 5 mM MgCl2). The assay is conducted in a final volume of 200 μL, in the presence of 1% (v/v) dimethyl sulphoxide (DMSO). Total binding of [^3H]NMS is determined in the absence of competing compound and non-specific binding of [^3H]NMS is determined in the presence of 1 μM atropine. The plates are incubated for 16 hours at room temperature and then read on Wallac Microbeta™ using a normalised ^3H protocol. The compound activity at 1 defined as % inhibition specific [^3H]-NMS binding, is determined.

These results are taken from US8148373B2, “Compounds” (AstraZeneca AB, priority 2008, dated 2012).

T1 sequence (P07550 whole entry): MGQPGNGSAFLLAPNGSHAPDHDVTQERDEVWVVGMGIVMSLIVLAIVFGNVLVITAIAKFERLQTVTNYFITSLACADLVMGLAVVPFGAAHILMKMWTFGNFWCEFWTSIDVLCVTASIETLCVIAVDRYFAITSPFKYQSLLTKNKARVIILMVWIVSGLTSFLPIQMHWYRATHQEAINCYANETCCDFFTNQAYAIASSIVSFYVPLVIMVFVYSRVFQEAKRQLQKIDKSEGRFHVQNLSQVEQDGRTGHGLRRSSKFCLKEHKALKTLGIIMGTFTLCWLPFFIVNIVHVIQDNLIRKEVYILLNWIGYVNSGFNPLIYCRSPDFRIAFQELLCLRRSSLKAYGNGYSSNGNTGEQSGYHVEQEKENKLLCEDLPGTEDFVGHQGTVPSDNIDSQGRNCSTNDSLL
T2 sequence (P20309 whole entry): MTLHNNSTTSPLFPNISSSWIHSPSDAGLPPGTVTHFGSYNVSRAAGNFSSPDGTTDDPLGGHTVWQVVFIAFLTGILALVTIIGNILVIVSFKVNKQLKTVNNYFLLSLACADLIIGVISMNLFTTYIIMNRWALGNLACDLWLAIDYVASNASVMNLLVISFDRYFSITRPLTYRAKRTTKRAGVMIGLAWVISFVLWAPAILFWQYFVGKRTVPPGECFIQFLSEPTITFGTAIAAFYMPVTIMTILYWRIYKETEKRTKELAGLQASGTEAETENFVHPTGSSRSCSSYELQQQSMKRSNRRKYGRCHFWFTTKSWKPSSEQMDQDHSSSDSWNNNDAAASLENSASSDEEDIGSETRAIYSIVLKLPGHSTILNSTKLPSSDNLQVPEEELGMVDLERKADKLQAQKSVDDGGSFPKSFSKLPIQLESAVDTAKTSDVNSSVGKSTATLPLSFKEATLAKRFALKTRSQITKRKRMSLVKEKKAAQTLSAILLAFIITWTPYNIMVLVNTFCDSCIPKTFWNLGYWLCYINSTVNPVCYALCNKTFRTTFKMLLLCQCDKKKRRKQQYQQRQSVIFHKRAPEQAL

On to `Cc1nc(C)c(CC(=O)N2CCOC3(CCN(CCCCCCCCCNC[C@H](O)c4ccc(O)c5[nH]c(=O)sc45)CC3)C2)s1` [Example 211, (R)-7-(2-(9-(4-(2-(2,4-dimethylthiazol-5-yl)acetyl)-1-oxa-4,9-diazaspiro[5.5]undecan-9-yl)nonylamino)-1-hydroxyethyl)-4-hydroxybenzo[d]thiazol-2(3H)-one], for which the activation at 1 µM in test [1] came to 91%. The same molecule gave an inhibition at 1 µM in test [2] of 68%.

In the case of `O=C(Cc1ccccc1)N1CCOC2(CCN(CCOc3ccc(CNC[C@H](O)c4ccc(O)c5[nH]c(=O)sc45)cc3)CC2)C1` [Example 227, (R)-4-hydroxy-7-(1-hydroxy-2-(4-(2-(4-(2-phenylacetyl)-1-oxa-4,9-diazaspiro[5.5]undecan-9-yl)ethoxy)benzylamino)ethyl) benzo[d]thiazol-2(3H)-one], the activation at 1 µM in test [1] is 80%. Besides, in test [2], the inhibition at 1 µM was determined as 48%.

`Cc1ccsc1C(=O)N1CCOC2(CCN(CCCCCCCCCNC[C@H](O)c3ccc(O)c4[nH]c(=O)sc34)CC2)C1` [Example 191, (R)-4-hydroxy-7-(1-hydroxy-2-(9-(4-(3-methylthiophene-2-carbonyl)-1-oxa-4,9-diazaspiro[5.5]undecan-9-yl)nonylamino)ethyl)benzo[d]thiazol-2(3H)-one]: in test [1], the activation at 1 µM was determined as 82%. This molecule also came in with an inhibition at 1 µM in test [2] of 94%.

On to `Cc1cc(CC(=O)N2CCOC3(CCN(CCCCCCCCCNC[C@H](O)c4ccc(O)c5[nH]c(=O)sc45)CC3)C2)on1` [Example 208, (R)-4-hydroxy-7-(1-hydroxy-2-(9-(4-(2-(3-methylisoxazol-5-yl)acetyl)-1-oxa-4,9-diazaspiro[5.5]undecan-9-yl)nonylamino)ethyl)benzo[d]thiazol-2(3H)-one], for which the activation at 1 µM in test [1] is 98%. Moreover, testing at 1 µM in test [2] gave an inhibition of 88%.

In the case of `O=C([C@@H]1CCCO1)N1CCOC2(CCN(Cc3cc(F)cc(CCNC[C@H](O)c4ccc(O)c5[nH]c(=O)sc45)c3)CC2)C1` [Example 158, 7-((R)-2-(3-fluoro-5-((4-((S)-tetrahydrofuran-2-carbonyl)-1-oxa-4,9-diazaspiro[5.5]undecan-9-yl)methyl)phenethylamino)-1-hydroxyethyl)-4-hydroxybenzo[d]thiazol-2(3H)-one], in test [1], the activation at 1 µM was determined as 95%. In test [2], this molecule gave an inhibition at 1 µM of 72%.

Regarding `O=C(COCCc1ccccc1)N1CCOC2(CCN(Cc3cc(F)cc(CCNC[C@H](O)c4ccc(O)c5[nH]c(=O)sc45)c3)CC2)C1` [Example 174, (R)-7-(2-(3-fluoro-5-((4-(2-phenethoxyacetyl)-1-oxa-4,9-diazaspiro[5.5]undecan-9-yl)methyl)phenethylamino)-1-hydroxyethyl)-4-hydroxybenzo[d]thiazol-2(3H)-one], the activation at 1 µM in test [1] worked out at 89%. Further, in test [2], the inhibition at 1 µM was 41%.

`O=C(c1c[nH]c2ccccc12)N1CCOC2(CCN(Cc3cc(F)cc(CCNC[C@H](O)c4ccc(O)c5[nH]c(=O)sc45)c3)CC2)C1` [Example 137, (R)-7-(2-(3-((4-(1H-indole-3-carbonyl)-1-oxa-4,9-diazaspiro[5.5]undecan-9-yl)methyl)-5-fluorophenethylamino)-1-hydroxyethyl)-4-hydroxybenzo[d]thiazol-2(3H)-one]: the activation at 1 µM in test [1] was 112%. The molecule also returned an inhibition at 1 µM in test [2] of 13%.

As for `Cc1nc2ccccn2c1C(=O)N1CCOC2(CCN(Cc3cc(F)cc(CCNC[C@H](O)c4ccc(O)c5[nH]c(=O)sc45)c3)CC2)C1` [Example 152, (R)-7-(2-(3-fluoro-5-((4-(2-methylimidazo[1,2-a]pyridine-3-carbonyl)-1-oxa-4,9-diazaspiro[5.5]undecan-9-yl)methyl)phenethylamino)-1-hydroxyethyl)-4-hydroxybenzo[d]thiazol-2(3H)-one], in test [1], the activation at 1 µM is 110%. In test [2], this molecule returned an inhibition at 1 µM of 13%.

In the case of `O=C(CCc1ccccc1)N1CCOC2(CCN(CCOc3ccc(CNC[C@H](O)c4ccc(O)c5[nH]c(=O)sc45)cc3)CC2)C1` [Example 228, (R)-4-hydroxy-7-(1-hydroxy-2-(4-(2-(4-(3-phenylpropanoyl)-1-oxa-4,9-diazaspiro[5.5]undecan-9-yl)ethoxy)benzylamino)ethyl) benzo[d]thiazol-2(3H)-one], in test [1], the activation at 1 µM worked out at 67%. The molecule further came in with an inhibition at 1 µM in test [2] of 22%.

For the molecule `O=C(CCc1cccs1)N1CCOC2(CCN(CCCCCCCCCNC[C@H](O)c3ccc(O)c4[nH]c(=O)sc34)CC2)C1` [Example 207, (R)-4-hydroxy-7-(1-hydroxy-2-(9-(4-(3-(thiophen-2-yl)propanoyl)-1-oxa-4,9-diazaspiro[5.5]undecan-9-yl)nonylamino)ethyl)benzo[d]thiazol-2(3H)-one], in test [1], the activation at 1 µM was 101%. The inhibition at 1 µM in test [2] worked out at 94%.

For the molecule `Cc1noc(C)c1CC(=O)N1CCOC2(CCN(Cc3cc(F)cc(CCNC[C@H](O)c4ccc(O)c5[nH]c(=O)sc45)c3)CC2)C1` [Example 167, (R)-7-(2-(3-((4-(2-(3,5-dimethylisoxazol-4-yl)acetyl)-1-oxa-4,9-diazaspiro[5.5]undecan-9-yl)methyl)-5-fluorophenethylamino)-1-hydroxyethyl)-4-hydroxybenzo[d]thiazol-2(3H)-one], the activation at 1 µM in test [1] was 100%. In test [2], the inhibition at 1 µM turned out to be 8%.

As for `O=C(c1ccc(-n2ccnc2)cc1)N1CCOC2(CCN(Cc3cc(F)cc(CCNC[C@H](O)c4ccc(O)c5[nH]c(=O)sc45)c3)CC2)C1` [Example 156, (R)-7-(2-(3-((4-(4-(1H-imidazol-1-yl)benzoyl)-1-oxa-4,9-diazaspiro[5.5]undecan-9-yl)methyl)-5-fluorophenethylamino)-1-hydroxyethyl)-4-hydroxybenzo[d]thiazol-2(3H)-one], the activation at 1 µM in test [1] amounted to 106%. Also, the inhibition at 1 µM in test [2] turned out to be 3%.

In the case of `Cc1nc(CC(=O)N2CCOC3(CCN(CCOc4ccc(CNC[C@H](O)c5ccc(O)c6[nH]c(=O)sc56)cc4)CC3)C2)cs1` [Example 251, (R)-4-hydroxy-7-(1-hydroxy-2-(4-(2-(4-(2-(2-methylthiazol-4-yl)acetyl)-1-oxa-4,9-diazaspiro[5.5]undecan-9-yl)ethoxy)benzylamino)ethyl) benzo[d]thiazol-2(3H)-one], the activation at 1 µM in test [1] worked out at 68%. This molecule also registered an inhibition at 1 µM in test [2] of 51%.

As for `Cc1nc2cc(C(=O)N3CCOC4(CCN(CCOc5ccc(CNC[C@H](O)c6ccc(O)c7[nH]c(=O)sc67)cc5)CC4)C3)ccc2s1` [Example 256, (R)-4-hydroxy-7-(1-hydroxy-2-(4-(2-(4-(2-methylbenzo[d]thiazole-5-carbonyl)-1-oxa-4,9-diazaspiro[5.5]undecan-9-yl)ethoxy)benzylamino)ethyl) benzo[d]thiazol-2(3H)-one], the activation at 1 µM in test [1] was found to be 76%. Also, in test [2], the inhibition at 1 µM worked out at 38%.

As to `Cc1nc2cc(C(=O)N3CCOC4(CCN(CCCCCCCCCNC[C@H](O)c5ccc(O)c6[nH]c(=O)sc56)CC4)C3)ccc2s1` [Example 215, (R)-4-hydroxy-7-(1-hydroxy-2-(9-(4-(2-methylbenzo[d]thiazole-5-carbonyl)-1-oxa-4,9-diazaspiro[5.5]undecan-9-yl)nonylamino)ethyl)benzo[d]thiazol-2(3H)-one], the activation at 1 µM in test [1] amounted to 89%. 1 µM produced 94% inhibition in test [2].
